Like-named read-outs stand apart in the source and are kept apart here.
Target: T1, human farnesoid X receptor (Homo sapiens, UniProt Q96RI1)
T1 construct: CMX-farnesoid X receptor (full length human farnesoid X receptor); expressed in transfected cells; host or cells: CV-1 African Green Monkey Kidney cells
T1 sequence (Q96RI1 1-472 isoform Q96RI1-2): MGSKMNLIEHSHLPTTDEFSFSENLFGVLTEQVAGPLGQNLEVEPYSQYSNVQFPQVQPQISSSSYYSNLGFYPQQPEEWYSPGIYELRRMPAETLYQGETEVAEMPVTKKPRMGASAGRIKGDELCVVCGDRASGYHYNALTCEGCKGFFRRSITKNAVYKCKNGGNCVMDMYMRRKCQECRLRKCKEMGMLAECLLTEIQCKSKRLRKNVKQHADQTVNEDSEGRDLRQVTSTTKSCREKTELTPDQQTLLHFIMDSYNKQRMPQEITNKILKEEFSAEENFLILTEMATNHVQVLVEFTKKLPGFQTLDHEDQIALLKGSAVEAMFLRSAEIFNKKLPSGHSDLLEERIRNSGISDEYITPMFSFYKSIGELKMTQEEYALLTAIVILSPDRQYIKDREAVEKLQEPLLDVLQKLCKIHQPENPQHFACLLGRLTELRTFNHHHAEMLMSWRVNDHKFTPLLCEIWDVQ
T1 sequence (P19793 1-462 partner): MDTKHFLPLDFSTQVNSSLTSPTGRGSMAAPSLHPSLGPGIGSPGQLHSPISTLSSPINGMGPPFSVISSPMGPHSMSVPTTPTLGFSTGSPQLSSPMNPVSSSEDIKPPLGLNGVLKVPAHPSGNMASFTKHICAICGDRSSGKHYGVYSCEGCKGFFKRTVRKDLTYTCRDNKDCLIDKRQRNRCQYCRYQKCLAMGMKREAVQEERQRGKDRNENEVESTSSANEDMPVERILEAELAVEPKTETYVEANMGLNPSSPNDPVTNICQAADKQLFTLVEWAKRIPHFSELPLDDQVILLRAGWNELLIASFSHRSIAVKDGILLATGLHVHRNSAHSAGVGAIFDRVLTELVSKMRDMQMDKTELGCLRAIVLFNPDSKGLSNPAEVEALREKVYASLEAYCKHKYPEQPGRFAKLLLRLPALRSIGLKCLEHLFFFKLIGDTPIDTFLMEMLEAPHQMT
Assay: FXR in vitro assays (farnesoid X receptor/ECREx7 co-transfection assay, TR-FRET assay), Table I
Format: cell-based
Conditions: for Emax: read-out: % Efficacy
Description: The basic co-transfection protocol for measuring the farnesoid X receptor activity is as follows. CV-1 African Green Monkey Kidney cells were plated 24 hours before transfection to achieve approximately 70-80 percent confluency. […] The assay was allowed to continue for an additional 18-20 hours, after which the cells were lysed, with lysis buffer (1% triton X 100, 10% glycerol, 5 mM Dithiothreitol, 1 mM EGTA, 25 mM Tricine, pH 7.8) and the luciferase activity measured in the presence of Luciferase assay buffer (0.73 mM ATP, 22.3 mm Tricine, 0.11 mM EGTA, 0.55 mM Luciferin, 0.15 mM Coenzyme A, 0.5 mM HEPES, 10 mM Magnesium sulphatc) on a standard luminometer plate reader (PE Biosystems, NorthStar Reader), using recommended operating instructions and conditions.
The dose response curves are generated from an 8 point curve with concentrations differing by ½ LOG units. Each point represents the average of 4 wells of data from a 384 well plate. A curve for the data is generated by using the equation:
Y=Bottom+(Top−Bottom)/(1+10̂((Log EC50−X)*HillSlope))
The EC50/IC50 is therefore defined as the concentration at which an agonist or antagonist elicits a response that is half way between the Top (maximum) and Bottom (baseline) values. The EC50/IC50 values represented are the averages of at least 3 independent experiments.

[1] = agonist activity, one or more of the in vitro assays, read-out: EC50

| SMILES | EC50 [1] [nM] | Emax [%] | EC50 [nM] |
| --- | --- | --- | --- |
| CC(C)OC(=O)C1=CN(C(=O)c2ccc(F)c(F)c2F)CC(C)(C)c2c1[nH]c1ccccc21 [Example 77, 1-methylethyl 1,1-dimethyl-3-[(2,3,4-trifluorophenyl)carbonyl]-1,2,3,6-tetrahydroazepino[4,5-b]indole-5-carboxylate] | 1 to 10 | > 100 |  |
| CC(C)OC(=O)C1=CN(C(=O)c2c(F)cc(F)cc2F)CC(C)(C)c2c1[nH]c1ccccc21 [Example 78, 1-methylethyl 1,1-dimethyl-3-[(2,4,6-trifluorophenyl)carbonyl]-1,2,3,6-tetrahydroazepino[4,5-b]indole-5-carboxylate] | 10 to 100 | > 100 |  |
| CC(C)OC(=O)C1=CN(C(=O)c2cc(F)c(F)cc2F)CC(C)(C)c2c1[nH]c1ccccc21 [Example 79, 1-methylethyl 1,1-dimethyl-3-[(2,4,5-trifluorophenyl)carbonyl]-1,2,3,6-tetrahydroazepino[4,5-b]indole-5-carboxylate] | 1 to 10 | > 100 |  |
| CC(C)OC(=O)C1=CN(C(=O)c2ccc(C(F)(F)F)c(F)c2)CC(C)(C)c2c1[nH]c1ccccc21 [Example 84, 1-methylethyl 3-{[3-fluoro-4-(trifluoromethyl)phenyl]car-bonyl}-1,1-dimethyl-1,2,3,6-tetrahydroazepino[4,5-b]indole-5-carboxylate] | 10 to 100 | > 100 |  |
| Cc1ccc(C(=O)N2C=C(C(=O)OC(C)C)c3[nH]c4ccccc4c3C(C)(C)C2)cc1 [Example 87, 1-methylethyl 1,1-dimethyl-3-[(4-methylphenyl)carbonyl]-1,2,3,6-tetrahydroazepino[4,5-b]indole-5-carboxylate] | 10 to 100 | > 100 |  |
| COc1cccc(C(=O)N2C=C(C(=O)OC(C)C)c3[nH]c4ccccc4c3C(C)(C)C2)c1 [Example 88, 1-methylethyl 1,1-dimethyl-3-{[3-(methyloxy)phenyl]carbonyl}-1,2,3,6-tetrahydroazepino[4,5-b]indole-5-carboxylate] | 10 to 100 | > 100 |  |
| COc1ccc(C(=O)N2C=C(C(=O)OC(C)C)c3[nH]c4ccccc4c3C(C)(C)C2)cc1 [Example 89, 1-methylethyl 1,1-dimethyl-3-{[4-(methyloxy)phenyl)carbonyl}-1,2,3,6-tetrahydroazepino[4,5-b]indole-5-carboxylate] | 1 to 10 | > 100 |  |
| CC(C)OC(=O)C1=CN(C(=O)c2cccc3c2OC(F)(F)O3)CC(C)(C)c2c1[nH]c1ccccc21 [Example 91, 1-methylethyl 3-[(2,2-difluoro-1,3-benzodioxol-4-yl)carbonyl]-1,1-dimethyl-1,2,3,6-tetrahydroazepino[4,5-b]indole-5-carboxylate] | 10 to 100 | > 100 |  |
| CC(C)OC(=O)C1=CN(C(=O)c2ccc3c(c2)OC(F)(F)O3)CC(C)(C)c2c1[nH]c1ccccc21 [Example 92, 1-methylethyl 3-[(2,2-difluoro-1,3-benzodioxol-5-yl)carbonyl]-1,1-dimethyl-1,2,3,6-tetrahydroazepino[4,5-b]indole-5-carboxylate] | 100 to 1000 | > 100 |  |
| CC(C)OC(=O)C1=CN(C(=O)c2ccc(C3CCNCC3)cc2)CC(C)(C)c2c1[nH]c1ccccc21 [Example 94, 1-methylethyl 1,1-dimethyl-3-[(4-piperidin-4-ylphenyl)carbonyl]-1,2,3,6-tetrahydroazepino[4,5-b]indole-5-carboxylate] | > 10000 |  |  |
| CC(C)OC(=O)C1=CN(C(=O)c2cccc(C3CCNCC3)c2)CC(C)(C)c2c1[nH]c1ccccc21 [Example 95, 1-methylethyl 1,1-dimethyl-3-[(3-piperidin-4-ylphenyl)carbonyl]-1,2,3,6-tetrahydroazepino[4,5-b]indole-5-carboxylate] | > 10000 |  |  |
| CCN(CC)CCNC(=O)Oc1ccc2c3c([nH]c2c1)C(C(=O)OC(C)C)=CN(C(=O)c1ccc(F)c(F)c1)CC3(C)C [Example 97, 1-methylethyl 8-[({[2-(diethylamino)ethyl]amino}carbonyl)oxy]-3-[(3,4-difluorophenyl)carbonyl]-1,1-dimethyl-1,2,3,6-tetrahydroazepino[4,5-b]indole-5-carboxylate] |  | > 100 | 10 to 100 |
| CC(C)OC(=O)C1=CN(C(=O)c2ccc(F)c(F)c2)CC(C)(C)c2c1[nH]c1cc(OCCN(C)C)ccc21 [Example 98, 1-methylethyl 3-[(3,4-difluorophenyl)carbonyl]-8-{[2-(dimethylamino)ethyl]oxy}-1,1-dimethyl-1,2,3,6-tetrahydroazepino[4,5-b]indole-5-carboxylate] | 100 to 1000 | < 40 |  |
| CC(C)OC(=O)C1=CN(C(=O)c2ccc(F)c(F)c2)CC(C)(C)c2c1[nH]c1cc(OCCCN(C)C)ccc21 [Example 99, 1-methylethyl 3-[(3,4-difluorophenyl)carbonyl]-8-{[3-(dimethylamino)propyl]oxy}-1,1-dimethyl-1,2,3,6-tetrahydroazepino[4,5-b]indole-5-carboxylate] | 100 to 1000 | 40 to 60 |  |
| COc1ccc(C(=O)N2C=C(C(=O)OC(C)C)c3[nH]c4ccccc4c3C(C)(C)C2)cc1OC [Example 100, 1-methylethyl 3-{[3,4-bis(methyloxy)phenyl]car-bonyl}-1,1-dimethyl-1,2,3,6-tetrahydroazepino[4,5-b]indole-5-carboxylate] | 10 to 100 | > 100 |  |
| CC1(C)CN(C(=O)c2ccc(F)c(F)c2)C=C(C(=O)NCCC(=O)O)c2[nH]c3ccccc3c21 [Example 101, N-({3-[(3,4-difluorophenyl)carbonyl]-1,1-dimethyl-1,2,3,6-tetrahydroazepino[4,5-b]indol-5-yl}carbonyl)-beta-alanine] | > 10000 |  |  |
| CNC(=O)Oc1ccc2c3c([nH]c2c1)C(C(=O)OC(C)C)=CN(C(=O)c1ccc(F)c(F)c1)CC3(C)C [Example 102, 1-methylethyl 3-[(3,4-difluorophenyl)carbonyl]-1,1-dimethyl-8-{[(methylamino)carbonyl]oxy}-1,2,3,6-tetrahydroazepino[4,5-b]indole-5-carboxylate] |  | < 40 | 10 to 100 |
| CCN(CC)CCOc1ccc2c3c([nH]c2c1)C(C(=O)OC(C)C)=CN(C(=O)c1ccc(F)c(F)c1)CC3(C)C [Example 103, 1-methylethyl 8-{[2-(diethylamino)ethyl]oxy}-3-[(3,4-difluorophenyl)carbonyl]-1,1-dimethyl-1,2,3,6-tetrahydroazepino[4,5-b]indole-5-carboxylate] | 100 to 1000 | < 40 |  |
| CCN(CC)CCCOc1ccc2c3c([nH]c2c1)C(C(=O)OC(C)C)=CN(C(=O)c1ccc(F)c(F)c1)CC3(C)C [Example 104] | 100 to 1000 | 60 to 80 |  |
| COCCOc1ccc2c3c([nH]c2c1)C(C(=O)OC(C)C)=CN(C(=O)c1ccc(F)c(F)c1)CC3(C)C [Example 105, 1-methylethyl 3-[(3,4-difluorophenyl)carbonyl]-1,1-dimethyl-8-{[2-(methyloxy)ethyl]oxy}-1,2,3,6-tetrahydroazepino[4,5-b]indole-5-carboxylate] | 100 to 1000 | 80 to 100 |  |
| CC(=O)C1=CN(C(=O)c2ccc(F)c(F)c2)CC(C)(C)c2c1[nH]c1ccccc21 [Example 106, 1-{3-[(3,4-difluorophenyl)carbonyl]-1,1-dimethyl-1,2,3,6-tetrahydroazepino[4,5-b]indol-5-yl}ethanone] | 100 to 1000 | > 100 |  |
| CC(C)OC(=O)C1=CN(C(=O)c2ccc(CN(C)C)cc2)CC(C)(C)c2c1[nH]c1ccccc21 [Example 107, 1-methylethyl 3-({4-[(dimethylamino)methyl]phenyl}carbonyl)-1,1-dimethyl-1,2,3,6-tetrahydroazepino[4,5-b]indole-5-carboxylate] | 1000 to 10000 | > 100 |  |

From US20090203577A1 (EXELIXIS, INC., priority 2005, published 2009)
